According to patent US6255497A, “Method for the inhibition of ALDH-I useful in the treatment of alcohol dependence or alcohol abuse” (priority 1998, dated 2001):
Converted amounts (≈) assume the structure as drawn. Where two headings read alike, the source gives them in different places.

Columns and labels:
[1] = molecular target: T1, ALDH-I (Homo sapiens, UniProt P05091); experiment: Competitive inhibition of ALDH-I with acetaldehyde as substrate, progress curve method; type: biochemical; design: A liver sample (50 g wet weight) with the usual Caucasian ALDH phenotype (both ALDH-I and ALDH-II present); from tissue; host or cells: human liver (autopsy), purified by CM-52, AMP-agarose and DEAE HPLC
T1 sequence (P05091 18-517): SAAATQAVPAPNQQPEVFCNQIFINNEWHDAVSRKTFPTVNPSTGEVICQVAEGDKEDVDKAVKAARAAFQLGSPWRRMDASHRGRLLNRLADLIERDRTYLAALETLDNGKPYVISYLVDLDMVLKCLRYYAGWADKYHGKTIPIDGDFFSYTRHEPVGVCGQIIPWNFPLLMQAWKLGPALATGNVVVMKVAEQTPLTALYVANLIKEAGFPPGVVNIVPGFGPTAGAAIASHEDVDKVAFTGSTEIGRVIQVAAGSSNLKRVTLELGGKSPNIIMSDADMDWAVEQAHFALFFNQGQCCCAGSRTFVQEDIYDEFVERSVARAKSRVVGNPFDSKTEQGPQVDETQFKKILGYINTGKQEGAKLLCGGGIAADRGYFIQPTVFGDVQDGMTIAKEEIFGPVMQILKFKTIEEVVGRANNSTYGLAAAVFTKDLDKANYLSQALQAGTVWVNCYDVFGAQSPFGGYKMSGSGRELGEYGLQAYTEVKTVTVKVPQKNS
Text: The progress curve method described by Klyosov and Berezin, 1972, Biokhimiya (Engl. transl.), Plenum, New York, 22: 141-151, was used instead of the initial velocilty method of Example 3 to obtain precis* values for inhibition constants for ALDH-I with acetaldehyde as substrate and the very tight binding novel inhibitors (Table VI).

[2] = test system: golden hamsters; experiment: Dose effect on free choice ethanol intake in golden hamsters, i.p.; type: in vivo, golden hamster
Text: It is common practice in quantitative drug studies with rodents to use intraperitoneal (i.p.) administration to deliver drug doses accurately (Goodman and Gilman, 1975, The Pharmacological Basis of Therapeutics, 5th ed., Macmillan, N.Y., p. 8). In particular, this method avoids variability introduced by technical difficulties of oral administration via feeding (full versus empty stomach, etc.), variations in drug transport in the gastrointestinal tract (variations in intestinal fauna and flora, individual variations in absorption rate expected of outbred animals, etc.) and other factors. […] As a control 1 ml of sterile saline was injected i.p. daily during the baseline period (typically 7-9 days) that establishes drinking preference without the drug. Saline injection i.p. had no effect on the drinking behavior of golden hamsters. Ethanol was provided as a 20% solution. Hamsters could be used more than once (but were not used more than three times) in a cycle of baseline saline injections followed by drug injections, each cycle with the drug at a different dose.
The response to daidzin treatment was computed as:
% Response=(Vo -Vd)×100/Vo

[3] = Plasma drug concentration versus time after a single 10 mg dose; type: in vivo; settings: golden hamster
Text: Five hours later the plasma concentrations of both inhibitors were still above […], far above their competitive inhibition constants for ALDH-I.

[4] = molecular target: T2, ALDH-II (Homo sapiens, UniProt P00352); experiment: Competitive inhibition of ALDH-II with acetaldehyde as substrate; type: biochemical; design: A liver sample (50 g wet weight) with the usual Caucasian ALDH phenotype (both ALDH-I and ALDH-II present); from tissue; host or cells: human liver (autopsy), purified by CM-52, AMP-agarose and DEAE HPLC; settings: acetaldehyde as substrate, competitive; read-out: Ki, ALDH-II
T2 sequence (P00352 1-501): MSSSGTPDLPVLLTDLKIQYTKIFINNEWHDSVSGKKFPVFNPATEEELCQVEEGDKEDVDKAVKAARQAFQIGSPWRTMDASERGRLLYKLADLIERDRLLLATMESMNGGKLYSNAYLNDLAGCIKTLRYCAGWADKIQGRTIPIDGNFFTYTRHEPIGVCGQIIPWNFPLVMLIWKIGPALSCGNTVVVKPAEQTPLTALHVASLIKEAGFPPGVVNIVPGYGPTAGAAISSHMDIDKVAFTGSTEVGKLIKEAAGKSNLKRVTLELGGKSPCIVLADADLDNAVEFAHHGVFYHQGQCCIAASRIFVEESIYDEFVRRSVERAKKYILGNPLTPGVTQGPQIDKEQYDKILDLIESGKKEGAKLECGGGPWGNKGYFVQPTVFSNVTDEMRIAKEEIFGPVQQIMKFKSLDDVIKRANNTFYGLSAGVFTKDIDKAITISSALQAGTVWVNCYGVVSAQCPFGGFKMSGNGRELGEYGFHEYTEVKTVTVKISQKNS

[5] = physchem; settings: water
[6] = test system: ADH isozymes; experiment: Inhibition of ADH; type: biochemical, human
[7] = two human volunteers, after 60 hours; cited from earlier work
[8] = test system: ALDH-I or ALDH-II; experiment: Survey of structurally related compounds for ALDH inhibition; type: biochemical, human
Protocol: For the study of the inhibition of ALDH-I by structurally related compounds to generate the data shown in Tables IV and V, each individual compound was dissolved at different concentrations in methanol and was added to the assay medium as 10 μL aliquots. For controls, 10 […] of methanol was added to the assay medium. In a standard ALDH-I assay, the assay medium contains 0.1 M sodium pyrophosphate pH 9.5, 0.15 M KCl, 1 mM NAD^+, 1% methanol, 5 μM acetaldehyde, 5-10 nM ALDH-I and various concentrations of inhibitor. The enzyme reaction rates were measured by monitoring the production of NADH at 340 nm (ε=6.22 mM^-1 cm^-1) with a Varian Cary 219 spectrophotometer thermostated at 25° C. (Fong et al., 1989, supra). The inhibition of ALDH-I by the inhibitors was calculated as: [formula]
where Vo is the enzyme reaction rate measured in the absence of inhibitor, and where Vi is the enzyme reaction rate measured in the presence of inhibitor. […] IC50 values are related to the underlying Ki values.

[9] = intravenous, mice; cited from earlier work
[10] = test system: ALDH; settings: cited from earlier work
[11] = test system: ALDH-I; settings: via reactive product of catabolism; cited from earlier work
[12] = cited from earlier work
[13] = experimental animals; cited from earlier work
[14] = test system: ALDH-I; settings: cited from earlier work
[15] = test system: ALDH-II; settings: cited from earlier work
[16] = test system: ALDH-II; settings: via reactive product of catabolism; cited from earlier work
[17] = test system: alcohol consumption; settings: rat, in vivo; cited from earlier work
[18] = test system: euphoria; settings: double-blind study in humans; cited from earlier work
[19] = test system: ALDH-I; settings: cited from earlier work; remark: listed apart in the source
[20] = test system: dopamine-β-hydroxylase, microsomal mixed function oxidases and other sulfhydryl-containing enzymes; settings: cited from earlier work
[21] = test system: ALDH; settings: cited from earlier work; remark: listed apart in the source
[22] = test system: ALDH-II; settings: high Km cytosolic isozyme; cited from earlier work
[23] = test system: alcohol consumption; settings: placebo-controlled clinical trials; cited from earlier work
[24] = test system: human class IV ADH; settings: cited from earlier work
[25] = test system: class I ADH isozymes containing at least one γ-subunit; settings: cited from earlier work
[26] = substrate: C=O; experiment: purified protein, by the assay type; settings: pH 9.5; 25.0 °C
Protocol: The inhibition kinetics were studied by the initial velocity method (Dixon and Webb, 1979, Enzymes, 3rd ed., Longman, Great Britain). […] The initial reaction rates were measured in a pH 9.5 assay medium 0.1 11 in glycine-NaOH, 0. […] The enzyme reaction rates were followed by monitoring the production of NADH at 340 nm (ε-6.22 mM^-1 cm^-1) with a Varian Cary 219 spectrophotometer thermostated at 25° C. The kinetic data were analyzed by standard graphical methods.

## O=C(O)CCCCCCOc1ccc2c(=O)c(-c3ccc(O)cc3)coc2c1 [Daidzein 7-(ω-carboxyhexyl) ether, daidzein 7-(ω-carboxyhexyl) ether]
[1]
  Ki: 9 nM
[2]; 10 mg/day, i.p., trained hamster B7
  suppression of alcohol intake, hamster B7: 69%
[2]; 10 mg/day, i.p., trained hamster E23
  suppression of alcohol intake, hamster E23: 72%
[2]; assuming a dose response slope similar to that of daidzin
  potency relative to daidzin, suppression of alcohol intake: not more than twice as potent as daidzin
[3]; i.p.
  time to maximal plasma concentration after injection: within about an hour after injection
[3]; plasma, ip, read-out: maximal plasma concentration
  Cmax: 4.5 µM
[4]
  Ki: 215 nM
[5]
  solubility: 13 mM (≈ 4970 µg/mL)

## CCOc1ccc2c(=O)c(-c3ccc(O)cc3)coc2c1 [Daidzein 7-ethyl ether]
[1]
  Ki: 38 nM
[4]
  Ki: 440 nM

## O=c1c(-c2ccc(O)cc2)coc2cc(O)ccc12 [Daidzein]
[6]
  ADH inhibition: selectively inhibits certain ADH isozymes
[7]
  excretion in urine and feces: little daidzein had appeared in urine and feces after 60 hours
[8]
  ALDH inhibition: does not inhibit ALDH
[9]
  half-life: on the order of one hour

## N#CN [cyanamide]
[10]; in vivo
  reversibility of ALDH inhibition: reversible
  time of maximal ALDH inhibition after drug administration: 1 to 2 h
[10]; within 24 hours
  restoration of ALDH activity within 24 hours: 80%
[11]
  inhibition of ALDH-I in vivo: inhibits both isozymes
[12]; alcoholics treated with cyanamide
  liver injury: liver injury, including generation of ground-glass inclusion bodies in liver cells
[12]; in vivo
  cardiotoxic effects: cardiotoxic effects, including hypotension and even cardiac death
[13]
  antithyroid activity: significant antithyroid activity
[14]
  inhibition of ALDH-I in vitro: Neither ALDH-I (the low Km isozyme) nor ALDH-II (the high Km isozyme) are inhibited in vitro
[15]
  inhibition of ALDH-II in vitro: Neither ALDH-I (the low Km isozyme) nor ALDH-II (the high Km isozyme) are inhibited in vitro
[16]
  inhibition of ALDH-II in vivo: inhibits both isozymes
[17]
  alcohol consumption after alcohol deprivation: increase in alcohol consumption
[18]
  effect with low doses of alcohol: induces and enhances euphoria

## CCN(CC)C(=S)SSC(=S)N(CC)CC [disulfiram, tetraethylthiuram disulfide]
[19]; major mitochondrial isozyme
  inhibition of ALDH-I in vitro: only slightly
[19]; trace amounts of 2-mercaptoethanol or methanethiol
  inhibition of ALDH-I in vitro in presence of mercaptans: inactivated
[20]
  specificity of enzyme inhibition: broadly acting but non-specific inhibitor
[21]
  reversibility of ALDH inhibition in vivo: irreversible
  time over which ALDH is inhibited in vivo: 12 h
[21]; in vivo, de novo enzyme synthesis
  time to restoration of ALDH activity: ≥ 6 days
[22]
  inhibition of ALDH-II in vitro: potent inhibitor
[23]
  reduction of alcohol consumption vs placebo: no more effective than the placebo control
[12]; in vivo
  skin toxicity and neuropathy: peripheral neuropathy
[18]
  effect with low doses of alcohol: induces and enhances euphoria

## CCO [ethanol]
[24]
  Km: 41 mM

## C[C@]12CC[C@H]3[C@@H](CCC4=CC(=O)CC[C@@]43C)[C@@H]1CC[C@@H]2O [testosterone]
[25]
  selective inhibition of γ-subunit class I ADH: selectively inhibited

B1: human ALDH-II (Homo sapiens) (protein)
chain: T2 sequence (P00352 1-501)
[26]
  Km: 6.6 mM
